Values joined by “and” are separate entries in the source; they are usually repeats but may differ in a detail not shown here. Equal entries are not always repeated. Where two headings read alike, the source gives them in different places.
Key:
[1] = biological target: T1, SARS-CoV-2 NSP3 Mac1 (Severe acute respiratory syndrome coronavirus 2, UniProt P0DTD1); test: biochemical; format: binding
[2] = biological target: T1, SARS-CoV-2 NSP3 Mac1; format: binding; conditions: for Refined occupancy: ligand occupancy after refinement (phenix.refine); for Comment (ligand modelled in the crystal structure): what was observed in density instead of the vendor structure
[3] = test system: SARS-CoV-2 NSP3 Mac1; test: Overall hit call (binding in crystallographic soaking or the HTRF-based binding assay)
Excerpt: Supplement pnas.2212931120.sd01.xlsx, sheet "Compound Summary" | column: HIT*

[4] = PanDDA event map 1-BDC, crystal soak, Compound_concentration 100 mM, PanDDA run dmso_34 or nohits_35 per dataset
[5] = PanDDA event map, 1 minus background density correction, crystal soaking of Mac1
[6] = crystal soak, Compound_concentration 100 mM, Echo dispense 40 nl, PanDDA run dmso_34 or nohits_35 per dataset
[7] = ligand modeled in this dataset, crystal soak, Compound_concentration 100 mM
[8] = HTRF ADPr-conjugated peptide displacement, read-out: IC50
[9] = HTRF ADPr-peptide displacement from SARS-CoV-2 Mac1, read-out: IC50
[10] = PanDDA 1-BDC of the event, compound stock 100 mM, Echo dispense volume 80 nl
[11] = crystal soak, compound stock 100 mM, Echo dispense volume 80 nl
[12] = ligand modeled in structure, compound stock 100 mM, Echo dispense volume 80 nl
[13] = PanDDA 1-BDC of the event, compound stock 100 mM, Echo dispense volume 40 nl
[14] = crystal soak, compound stock 100 mM, Echo dispense volume 40 nl
[15] = PanDDA event map, crystal soak, Compound_concentration 100 mM, Echo_dispense_volume 40 nl
[16] = crystal soak, Compound_concentration 100 mM, Echo_dispense_volume 40 nl, PanDDA run (background map) dmso_34, nohits_35 or nohits_62
[17] = ligand modeled, crystal soak, Compound_concentration 100 mM, Echo_dispense_volume 40 nl
[18] = PanDDA event map background density correction, crystal soak, compound concentration 100 mM
[19] = ligand modeled in the crystal structure, crystal soak, compound concentration 100 mM
[20] = ligand modeled from this dataset, compound concentration 100 mM

| Structure (SMILES) | 1-BDC [2, 4] | 1-BDC (PanDDA) [2, 5] | PanDDA hit? [2, 6] | Refined occupancy ([2]; crystal soaking of Mac1) | HIT* [3] | IC50 [1, 8] [µM] | Ki ([1]; read-out: Ki***) [µM] | 1-BDC [2, 10] | PanDDA hit? [2, 11] | other results |
| --- | --- | --- | --- | --- | --- | --- | --- | --- | --- | --- |
| O[C@H]1CCCC[C@H]1Nc1ncnc2[nH]ccc12 (relative stereo) [SRH-0015] | 0.13 | 0.13 | TRUE | 26 | Y | – | – | – | – | IC50 ([1]; IC50, HTRF ADPr-peptide displacement from SARS-CoV-2 Mac1): 132 µM; IC50 ([1]; IC50 [µM], HTRF ADPr-conjugated peptide displacement): 132 µM; Ki ([1]; Ki*** [µM]): 115 µM; Modeled? [2, 7]: TRUE |
| O=C(O)CC1CN(c2ncnc3[nH]c4cc(F)ccc4c23)CC2(CCC2)O1 (stereo not drawn) [LL114_0024] | 0.06 | 0.11 | TRUE | 22 | Y | 19.7 | 17.1 | 0.11 | TRUE | IC50 [1, 9]: 19.6 µM and 20 µM; Modeled? [2, 12]: TRUE |
| Cl.O=C(O)C1CN(c2ncnc3[nH]c4cc(F)ccc4c23)CCO1 (stereo not drawn) [LL114_0033] | 0.15 | 0.15 | TRUE | 30 | Y | 40.4 | 35.2 | – | – | 1-BDC [2, 13]: 0.15; PanDDA hit? [2, 14]: TRUE; Modeled? ([2]; ligand modeled in structure, compound stock 100 mM, Echo dispense volume 40 nl): TRUE |
| O=C(O)C(O)C1CCCN(c2ncnc3[nH]c4cc(F)ccc4c23)C1 (stereo not drawn) [LL114_0036] | 0.2 | 0.24 | TRUE | 48 | Y | 34.1 | 29.7 | 0.24 | TRUE | Modeled? [2, 12]: TRUE |
| O=C(O)[C@H]1[C@@H]2CN(c3ncnc4[nH]c5cc(F)ccc5c34)CC[C@@H]21 [LL114_0037] | – | – | – | – | Y | 37.6 | 32.7 | – | – | – |
| COC(=O)CC1CN(c2ncnc3[nH]c4cc(F)ccc4c23)CCO1 (stereo not drawn) [LL114_0040] | 0.11 | 0.08 | TRUE | 16 | Y | – | – | 0.08 | TRUE | 1-BDC [2, 15]: 0.08; PanDDA hit? [2, 16]: TRUE; Modeled? [2, 17]: TRUE |
| O=C(O)CCC1CN(c2ncnc3[nH]c4cc(F)ccc4c23)CCO1 (stereo not drawn) [LL114_0041] | 0.15 | 0.16 | TRUE | 32 | Y | 69.2 | 60.2 | 0.15 | TRUE | 1-BDC [2, 15]: 0.16; PanDDA hit? [2, 16]: TRUE; Modeled? [2, 17]: TRUE |
| Nc1nc(N2CC3(CCC3)C(F)(C(=O)O)C2)c2c(n1)[nH]c1cc(F)ccc12 (stereo not drawn) [LL123_0016] | – | 0.17 | – | 34 | Y | 24.5 | 21.3 | – | – | 1-BDC [2, 18]: 0.17; 1-BDC [2, 15]: 0.15; PanDDA hit? [2, 16]: TRUE; Modeled? [2, 19]: TRUE |
| O=C(O)C1CN(c2ncnc3[nH]c4cc(F)ccc4c23)CC12CCC2 (stereo not drawn) [LL123_0020] | 0.13 | 0.17 | TRUE | 34 | Y | 13.5 | 11.7 | 0.12 and 0.17 | TRUE | IC50 [1, 9]: 14 µM; 1-BDC [2, 15]: 0.17; PanDDA hit? [2, 16]: TRUE; Modeled? [2, 17]: TRUE |
| O=C(O)C1(F)CN(c2ncnc3[nH]c4cc(F)ccc4c23)CC12COC2 (stereo not drawn) [LL123_0031] | – | 0.08 | – | 16 | Y | 23.2 | 20.2 | 0.08 | TRUE | IC50 [1, 9]: 23 µM; Modeled? [2, 12]: TRUE |
| O=S1(=O)CC(CNc2ncnc3[nH]c4cc(F)ccc4c23)C1 [LRH-0005] | – | 0.1 | – | 20 | Y | – | – | 0.1 | TRUE | 1-BDC [2, 13]: 0.1; PanDDA hit? [2, 14]: TRUE; Modeled? [2, 12]: TRUE |
| O=S1(=O)CCC1CNc1ncnc2[nH]c3cc(F)ccc3c12 (stereo not drawn) [LRH-0012] | 0.07 | 0.07 | TRUE | 14 | Y | – | – | 0.06 | TRUE | Modeled? [2, 7]: TRUE |
| O[C@@H]1CC[C@H](Nc2ncnc3[nH]c4cc(F)ccc4c23)C1 [LRH-0018] | 0.07 | 0.07 | TRUE | 14 | Y | – | – | 0.07 | TRUE | Modeled? [2, 7]: TRUE |
| O=C(O)[C@@H]1CCC[C@H](Nc2ncnc3[nH]c4cc(F)ccc4c23)C1 [LRH-0022] | – | 0.32 | – | 64 | Y | – | – | 0.32 | TRUE | 1-BDC [2, 13]: 0.28; PanDDA hit? [2, 14]: TRUE; Modeled? [2, 12]: TRUE; Comment (ligand modelled in the crystal structure) [2]: pyrimido-indole core only |
| [O-][n+]1cccc(Nc2ncnc3[nH]c4cc(F)ccc4c23)c1 [LRH-0031] | – | 0.17 | – | 34 | Y | – | – | 0.17 | TRUE | 1-BDC [2, 13]: 0.18; PanDDA hit? [2, 14]: TRUE; Modeled? [2, 12]: TRUE; Comment (ligand modelled in the crystal structure) [2]: pyrimido-indole core only |
| CN(c1ncnc2[nH]c3cc(F)ccc3c12)C1CCCS(=O)(=O)C1 (stereo not drawn) [LRM-0010] | – | 0.06 | – | 12 | Y | – | – | 0.06 | TRUE | Modeled? [2, 12]: TRUE |
| CN(Cc1ccccn1)c1ncnc2[nH]c3cc(F)ccc3c12 [LRM-0028] | – | 0.15 | – | 30 | Y | – | – | 0.15 | TRUE | 1-BDC [2, 13]: 0.14; PanDDA hit? [2, 14]: TRUE; Modeled? [2, 12]: TRUE |
| O=S1(=O)CC(CNc2ncnc3[nH]ccc23)C1 [SRH-0005] | – | – | – | 18 | Y | – | – | – | – | 1-BDC [2, 5]: 0.09; Modeled? [2, 20]: TRUE |
| O=S1(=O)CCCC(Nc2ncnc3[nH]ccc23)C1 (stereo not drawn) [SRH-0010] | 0.13 | 0.13 | TRUE | 26 | Y | – | – | – | – | Modeled? [2, 7]: TRUE |
| O[C@@H]1CC[C@H](Nc2ncnc3[nH]ccc23)C1 [SRH-0018] | – | – | – | 14 | Y | – | – | – | – | 1-BDC [2, 5]: 0.07; Modeled? [2, 20]: TRUE |
| c1ccc(CNc2ncnc3[nH]ccc23)nc1 [SRH-0028] | 0.09 | 0.09 | TRUE | 18 | Y | – | – | – | – | Modeled? [2, 7]: TRUE |
| CCC(=O)Nc1nc(C)c(S(=O)(=O)Nc2cccc(C#N)c2)s1 [Z0611] | – | – | – | – | Y | 143 | 124 | – | – | – |
| O=C(O)CC(NC(=O)c1cc(F)cc2[nH]cnc12)c1ccc(Br)cc1 (stereo not drawn) [Z3722] | – | – | – | – | Y | 26.2 | 22.8 | – | – | – |
| O=C(O)c1csc(CCNC(=O)c2cc3[nH]cnc3cc2F)n1 [Z5740] | – | 0.1 | – | 20 | Y | – | – | – | – | 1-BDC [2, 18]: 0.1; Modeled? [2, 19]: TRUE |
| CNc1cnc(C(=O)N2CC(c3noc(O)n3)C2)cn1.O=C(O)C(F)(F)F [Z6567] | – | 0.31 | – | 62 | Y | – | – | – | – | 1-BDC [2, 18]: 0.31; Modeled? [2, 19]: TRUE |
| O=C(NC1C=CC(C(=O)O)C1)c1ncnc2sccc12 (stereo not drawn) [Z6645] | – | – | – | – | Y | 69.4 | 60.4 | – | – | – |
| CCNc1ncc(C(=O)NCCn2cnc(C(=O)O)c2)s1 [Z6684] | – | 0.1 | – | 20 | Y | – | – | – | – | 1-BDC [2, 15]: 0.1; PanDDA hit? [2, 16]: TRUE; Modeled? [2, 17]: TRUE |
| Cn1ncc2c(=O)[nH]c(CCC(=O)N3CC=C(C(=O)O)C3)nc21 [Z6689] | – | 0.17 | – | 34 | Y | – | – | – | – | 1-BDC [2, 18]: 0.17; Modeled? [2, 19]: TRUE |
| Cn1ncc2ncnc(NS(=O)(=O)Cc3ccc(CC#N)cc3)c21 [Z6742] | – | – | – | – | Y | 42.4 | 36.9 | – | – | – |
| Cn1ccn2c(CCNC(=O)[C@H]3C[C@H]3C(=O)O)nnc2c1=O [Z6744] | – | 0.3 | – | 60 | Y | – | – | – | – | 1-BDC [2, 18]: 0.3; Modeled? [2, 19]: TRUE |
